Assay results: patent US20150258189A1, “HEPATITIS C VIRUS PARTICLES FORMATION PROMOTER, AND METHOD OF PRODUCING HEPATITIS C VIRUS PARTICLES” (priority 2012, published 2015)
Like-named read-outs stand apart in the source and are kept apart here.

How the values were obtained:
Assay type in all cases: cell-based, hepatitis C virus
HCV JFH1 strain [1] = conditions: for Promotion ratio (HCV particle production-promoting effect): added after HCV adsorption, 46 h culture, Huh7-it cells, moi=0.1, control (DMSO) = 1.0
Method: In this example, the purified lovastatin solution “B15.4.1” (FIG. 1) of Example 1 was used as the “HCV particle formation promoter.” A lovastatin solution prepared by adding a culture medium to the HCV particle formation promoter to adjust each lovastatin concentration at the time of virus inoculation and at the time of culture to from 1.25 to 20 μg/ml was used in the following.
In this example, Huh7-it cells, a highly HCV-permissive cell line derived from Huh7 cells, were used as culture cells. The medium used was Dulbecco's modified Eagle's medium supplemented with 10% fetal calf serum, non-essential amino acids, penicillin, and streptomycin, and the cells were cultured using a 48-well culture plate.
A HCV stock solution to be used to promote formation of HCV particles was prepared by the following method. The HCV strain used was JFH1 strain (genome sequence: GenBank accession number AB047639). RNA having the same sequence as that of the full genome of the HCV JFH1 strain was introduced (transfected) into Huh7-it cells by an electroporation method (van den Hoff M J et al., Nucleic Acids Res., 20:2902, 1992), and the culture supernatant 72 hours after the introduction was collected. The collected culture supernatant was passed through a 0.45-μm filter (Millipore) to remove contaminants, and then added to other Huh7-it cells. An infectivity titer was calculated by measuring the number of HCV-infected cells after 72 hours by a focus method, and a solution adjusted to have an infectivity titer of 5.4×10^4 infectious units/ml was used as the HCV stock solution. The infectivity titer to prepare the HCV stock solution was calculated by an immunostaining method. An anti-HCV-core (clone CP14) monoclonal antibody was used as a primary antibody, and a HRP-labeled goat anti-mouse antibody was used as a labeling antibody. Konica Immunostain HRP-1000 (Konica Minolta) was added, and the number of virus antigen-positive cell populations stained in blue (immunofocus; also called focus) was measured under a microscope. Thus, the infectivity titer was calculated.
A mixture of the HCV stock solution (5.4×10^4 infectious units/ml) prepared in the above-mentioned section 3) and the HCV particle formation promoter was inoculated into culture cells, and the virus was adsorbed to the cells at 37° C. for 2 hours. Then, the virus liquid was removed, and the cells were washed three times with a culture medium. After that, in the same manner as described above, the cells were cultured for […] with the addition of the HCV particle formation promoter (lovastatin concentration: 1.25 to 20 μg/ml). The virus was inoculated into the culture cells so that the multiplicity of infection (moi) was 0.1.
To confirm a virus-producing ability, the culture medium of the infected cells was centrifuged at 10,000 rpm for 3 minutes, and the centrifugation supernatant was used as a sample liquid. The sample liquid was inoculated into non-HCV-infected Huh7-it cells. […] The number of staining-positive cells was measured, and the HCV infectivity titer was measured.
In this example, the crude lovastatin solution “B15” (FIG. 1) of Example 1 was used as the “HCV particle formation promoter.” A lovastatin solution prepared by adding a culture medium to the HCV particle formation promoter to adjust each lovastatin concentration at the time of virus inoculation and at the time of culture to from 1 to 50 μg/ml was used in the following.
In this example, HCV was inoculated into culture cells to achieve moi=0.1 as in Example 2, and the HCV particle formation promoter was added at the following timings i) to iii).
A mixture of HCV and the HCV particle formation promoter was inoculated into culture cells, and the virus was adsorbed to the cells at 37° C. for 2 hours. Then, the virus liquid was removed, and the cells were washed three times with a culture medium. After that, the cells were cultured for 46 hours with the addition of the HCV particle formation promoter containing lovastatin. […]

HCV JFH1 strain [2] = conditions: added after HCV adsorption, 46 h culture, Huh7-it cells, moi=0.1, control (DMSO) = 1.0
HCV protein (antigen) = assay: Intracellular HCV protein (antigen) synthesis by immunostaining in Huh7-it cells; conditions: Example 6, 20 μg/ml lovastatin, versus DMSO control (FIG. 7)
HCV RNA = assay: Intracellular HCV RNA copy number by quantitative RT-PCR in Huh7-it cells; conditions: Example 6; 20 μg/ml lovastatin; days 1, 2, 3 and 4 after infection; versus DMSO control (FIG. 6)
Method: In this example, culture cells were prepared in the same manner as in Example 2 to confirm the influence on the HCV RNA copy number in the culture cells on days 1, 2, 3, and 4 after HCV infection in adding the HCV particle formation promoter to Huh7-it cells over a period of from during HCV adsorption to 48 hours after HCV infection. In this example, the purified lovastatin solution “B15.4.1” (FIG. 1) of Example 1 was used as the HCV particle formation promoter. A lovastatin solution prepared by adding a culture medium to the HCV particle formation promoter to adjust each lovastatin concentration at the time of virus inoculation and at the time of culture to 20 μg/ml was used in the following. A system containing DMSO in place of the HCV particle formation promoter was used as a control.
A sample to measure an intracellular HCV RNA copy was prepared in the same manner as in Example 5. Total RNA was extracted from infected cells using Trizol®/Trizol®-LS (Invitrogen). cDNA was synthesized from the total RNA by performing a reverse transcription reaction at 37° C. for 15 minutes and an enzyme inactivation reaction at 98° C. for 5 minutes through the use of a ReverTra Ace® qPCR-Kit (Toyobo). The HCV RNA copy number was measured by a quantitative RT-PCR method using a LightCycler® 480 real-time PCR system. […]

HCV JFH1 strain [3] = assay: Intracellular HCV infectivity titer in Huh7-it cells (freeze-thawing method); conditions: Example 5; 20 μg/ml lovastatin, from adsorption to 48 h after infection; versus DMSO control (FIG. 5)
Method: In this example, culture cells were prepared in the same manner as in Example 2 to confirm the influence on the HCV infectivity titer inside and outside Huh7-it cells in adding the HCV particle formation promoter to the cells over a period of from during HCV adsorption to 48 hours after HCV infection. In this example, the purified lovastatin solution “B15.4.1” (FIG. 1) of Example 1 was used as the HCV particle formation promoter. A lovastatin solution prepared by adding a culture medium to the HCV particle formation promoter to adjust each lovastatin concentration at the time of virus inoculation and at the time of culture to 20 μg/ml was used in the following. A system containing dimethylsulfoxide (DMSO) in place of the HCV particle formation promoter was used as a control.
A sample to measure an extracellular HCV infectivity titer was prepared in the same manner as in Example 2. A sample to measure an intracellular HCV infectivity titer was prepared by a freeze-thawing method. First, infected cells were washed with PBS and then detached by trypsin/EDTA treatment, followed by centrifugation to collect a cell pellet. The cell pellet was washed once with PBS, suspended in 0.5 ml of a culture medium, and freeze-thawed at −80° C. three times repeatedly, followed by centrifugation at 12,000 rpm for 5 minutes. […] Each sample was measured for its virus titer in the same manner as in Example 2.

| Compound | Promotion ratio (HCV particle production-promoting effect) (HCV JFH1 strain [1]; 1.25 μg/ml) | Promotion ratio (HCV particle production-promoting effect) (HCV JFH1 strain [1]; 2.5 μg/ml) | Promotion ratio (HCV particle production-promoting effect) (HCV JFH1 strain [1]; 5.0 μg/ml) | Promotion ratio (HCV particle production-promoting effect) (HCV JFH1 strain [1]; 20.0 μg/ml) | Promotion ratio (HCV particle production-promoting effect) (HCV JFH1 strain [2]; 80.0 μg/ml) | Promotion ratio (HCV particle production-promoting effect) (HCV JFH1 strain [2]; 200.0 μg/ml) | intracellular HCV protein (antigen) synthesis amount (HCV protein (antigen)) | HCV infectivity titer (HCV JFH1 strain [1]; Example 2, 5 to 20 μg/ml of lovastatin, during adsorption and 48 h culture, Huh7-it cells (FIG. 2)) | virus infectivity titer (HCV JFH1 strain [1]; Example 4, 20 μg/ml lovastatin, added after HCV adsorption (with or without presence during adsorption), 46 h culture (FIG. 4)) | intracellular HCV RNA replication amount (HCV RNA) | intracellular HCV particle-producing ability versus control (HCV JFH1 strain [3]) |
| --- | --- | --- | --- | --- | --- | --- | --- | --- | --- | --- | --- |
| CC(C)n1c(/C=C/[C@@H](O)C[C@@H](O)CC(=O)[O-])c(-c2ccc(F)cc2)c2ccccc21.[Na+] [Fluvastatin, sodium (3R,5S,6E)-7-[3-(4-fluorophenyl)-1-(1-methylethyl)-1H-indol-2-yl]-3,5-dihydroxy-6-heptenoate] | 9.2 | 14.3 | 15.2 | 7.9 | – | – | – | – | – | – | – |
| CCC(C)(C)C(=O)O[C@H]1C[C@@H](C)C=C2C=C[C@H](C)[C@H](CC[C@@H]3C[C@@H](O)CC(=O)O3)[C@H]21 [Simvastatin, (1S,3R,7S,8S,8aR)-8-[2-[(2R,4R)-4-hydroxy-6-oxotetrahydropyran-2-yl]ethyl]-3,7-dimethyl-1,2,3,7,8,8a-hexahydro-1-naphthyl] | 8.5 | 14.8 | 19.5 | 4.1 | – | – | – | – | – | – | – |
| CC[C@H](C)C(=O)O[C@H]1C[C@H](O)C=C2C=C[C@H](C)[C@H](CC[C@@H](O)C[C@@H](O)CC(=O)O)[C@H]21 [Pravastatin, (1S,βR,δR,8aβ)-1,2,6,7,8,8a-hexahydro-β,δ,6β-trihydroxy-2β-methyl-8α-[(S)-2-methyl-1-oxobutoxy]-1β-naphthaleneheptanoate] | – | – | 0.6 | 2.7 | 17.2 | 24.7 | – | – | – | – | – |
| CC[C@H](C)C(=O)O[C@H]1C[C@@H](C)C=C2C=C[C@H](C)[C@H](CC[C@@H]3C[C@@H](O)CC(=O)O3)[C@H]21 [Lovastatin, (1S,3R,7S,8S,8aR)-8-[2-((2R,4R)-4-hydroxy-6-oxotetrahydro-2H-pyran-2-yl)ethyl]-3,7-dimethyl-1,2,3,7,8,8a-hexahydro-1-naphthyl] | 0.8 | 3.5 | 6.1 | 11.1 | – | – | – | – | – | – | – |
| CC(C)c1c(C(=O)Nc2ccccc2)c(-c2ccccc2)c(-c2ccc(F)cc2)n1CC[C@@H](O)C[C@@H](O)CC(=O)O [Atorvastatin, calcium (3R,5R)-7-[2-(4-fluorophenyl)-5-isopropyl-3-phenyl-4-[(phenylamino)carbonyl]-1H-pyrrol-1-yl]-3,5-dihydroxyheptanoate] | 0.9 | 4.3 | 9.4 | 9.7 | – | – | – | – | – | – | – |
| CC[C@H](C)C(=O)O[C@H]1C[C@@H](C)C=C2C=C[C@H](C)[C@H](CC[C@@H]3C[C@@H](O)CC(=O)O3)[C@H]21 [B15.4.1] | – | – | – | – | – | – | not affected | high HCV infectivity titer was found in a lovastatin concentration-dependent manner | high virus infectivity titer was found | not affected | substantially no difference |
